From article PMC6576746, “Rational discovery of dual-indication multi-target PDE/Kinase inhibitor for precision anti-cancer therapy using structural systems pharmacology” (PLoS Computational Biology, 2019)

Legend:
Experiment in all cases: cells
Design in all cases: species or system panel of human cancer cell lines; Eurofins OncoPanel proliferation; nuclei count by high-content fluorescence imaging, 10-point dose response
NAMALWA = details: 72 h, cell count, 3 days
Procedure, shortened: (§1)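 Ten half-log concentrations from 100 μM (0.1% DMSO max) applied one day post-seeding, 3-day exposure at 37°C; untreated time-zero plate for GI50. Readout is nuclear cell count by automated fluorescence imaging, giving EC50, IC50, GI50 and 0–10 activity area.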

SW837 = details: Homo sapiens, SW837, 72 h, cell count, 3 days
Procedure, shortened: as §1

Hs 688(A).T = details: 72 h, cell count, 3 days
Procedure, shortened: as §1

SW579 = details: SW579, 72 h, cell count, 3 days
Procedure, shortened: as §1

J82 = details: Homo sapiens, J82, 72 h, cell count, 3 days
Procedure, shortened: as §1

A498 = details: Homo sapiens, A498, 72 h, cell count, 3 days
Procedure, shortened: as §1

SU-DHL-10 = details: Homo sapiens, SU-DHL10, 72 h, cell count, 3 days
Procedure, shortened: as §1

IM-9 = details: Homo sapiens, IM-9, 72 h, cell count, 3 days
Procedure, shortened: as §1

Hs 895.T = details: 72 h, cell count, 3 days
Procedure, shortened: as §1

KG-1 = details: Homo sapiens, KG-1, 72 h, cell count, 3 days
Procedure, shortened: as §1

Cal 27 = details: Homo sapiens, CAL-27, 72 h, cell count, 3 days
Procedure, shortened: as §1

MCF7 = details: Homo sapiens, MCF7, 72 h, cell count, 3 days
Procedure, shortened: as §1

KU812 = details: Homo sapiens, KU812, 72 h, cell count, 3 days
Procedure, shortened: as §1

ChaGoK1 = details: Homo sapiens, ChaGo-K-1, 72 h, cell count, 3 days
Procedure, shortened: as §1

[1] = 50% of maximum possible response

Structure (SMILES): C[C@@H]1CC(=O)NN=C1c1ccc(NN=C(C#N)C#N)cc1 [levosimendan]
- IC50 (NAMALWA; [1]): 12.5 µM
- GI50 (NAMALWA; corrected for time zero): 11.3 µM
- EC50 (NAMALWA; curve inflection point): 12.5 µM
- IC50 (SW837; [1]): 37.5 µM
- GI50 (SW837; corrected for time zero): 31.8 µM
- EC50 (SW837; curve inflection point): 33.3 µM
- IC50 (Hs 688(A).T; [1]): > 100 µM
- GI50 (Hs 688(A).T; corrected for time zero): 10.5 µM
- EC50 (Hs 688(A).T; curve inflection point): 16 µM
- IC50 (SW579; [1]): 90.1 µM
- GI50 (SW579; corrected for time zero): 67.9 µM
- EC50 (SW579; curve inflection point): 90.1 µM
- IC50 (J82; [1]): > 100 µM
- GI50 (J82; corrected for time zero): > 100 µM
- EC50 (J82; curve inflection point): > 100 µM
- IC50 (A498; [1]): 81.2 µM
- GI50 (A498; corrected for time zero): 60.8 µM
- EC50 (A498; curve inflection point): 81.2 µM
- IC50 (SU-DHL-10; [1]): 13.3 µM
- GI50 (SU-DHL-10; corrected for time zero): 12 µM
- EC50 (SU-DHL-10; curve inflection point): 13.3 µM
- IC50 (IM-9; [1]): 41 µM
- GI50 (IM-9; corrected for time zero): 35.5 µM
- EC50 (IM-9; curve inflection point): 41 µM
- IC50 (Hs 895.T; [1]): > 100 µM
- GI50 (Hs 895.T; corrected for time zero): 32.8 µM
- EC50 (Hs 895.T; curve inflection point): > 100 µM
- IC50 (KG-1; [1]): 21.7 µM
- GI50 (KG-1; corrected for time zero): 13.5 µM
- EC50 (KG-1; curve inflection point): 19.2 µM
- IC50 (Cal 27; [1]): 14.9 µM
- GI50 (Cal 27; corrected for time zero): 13.2 µM
- EC50 (Cal 27; curve inflection point): 14.5 µM
- IC50 (MCF7; [1]): 32.4 µM
- GI50 (MCF7; corrected for time zero): 19 µM
- EC50 (MCF7; curve inflection point): 16.1 µM
- IC50 (KU812; [1]): 70.3 µM
- GI50 (KU812; corrected for time zero): 48.8 µM
- EC50 (KU812; curve inflection point): 70.3 µM
- IC50 (ChaGoK1; [1]): 84.9 µM
- GI50 (ChaGoK1; corrected for time zero): 57.2 µM
- EC50 (ChaGoK1; curve inflection point): 84.9 µM
